Values joined by “and” are separate entries in the source; they are usually repeats but may differ in a detail not shown here. Equal values may be shown once.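 Following 48 hours of exposure in 96-well plates, responses at five concentrations were used to interpolate endpoints linearly. The concentration for 50% growth inhibition is given as GI50. TGI is the concentration that stops growth completely.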
Key:
Assay in all cases: NCI-60 cell line screen, 48 h
[1] = test system: U251 CNS
[2] = test system: BT-549 breast
[3] = test system: A549 NSCLC
[4] = test system: NCI-H23 lung
[5] = test system: DLD-1 colon
[6] = test system: M19-MEL melanoma
[7] = test system: LXFL 529 NSCLC
[8] = test system: SR leukemia
[9] = test system: RXF 393 renal
[10] = test system: KM12 colon
[11] = test system: MALME-3M melanoma
[12] = test system: UO-31 renal
[13] = test system: SNB-19 CNS
[14] = test system: SK-MEL-2 melanoma
[15] = test system: MDA-MB-435
[16] = test system: HL-60(TB) leukemia
[17] = test system: MDA-MB-231 breast
[18] = test system: PC-3 prostate
[19] = test system: DMS 273 small cell lung
[20] = test system: HOP-62 NSCLC
[21] = test system: HOP-18 NSCLC
[22] = test system: UACC-257 melanoma
[23] = test system: MOLT-4 leukemia
[24] = test system: MDA-N
[25] = test system: HCT-15 colon
[26] = test system: SK-OV-3 ovarian
[27] = test system: NCI-H522 lung
[28] = test system: 786-0 renal
[29] = test system: A498 renal
[30] = test system: RPMI-8226 leukemia
[31] = test system: MCF7 breast
[32] = test system: HOP-92 NSCLC
[33] = test system: COLO 205 colon
[34] = test system: NCI-H460 lung
[35] = test system: HT29 colon
[36] = test system: SNB-75 CNS
[37] = test system: SK-MEL-5 melanoma
[38] = test system: HS 578T breast
[39] = test system: OVCAR-8 ovarian
[40] = test system: ACHN renal
[41] = test system: SW-620 colon
[42] = test system: SF-539 CNS
[43] = test system: TK-10 renal
[44] = test system: IGROV1 ovarian
[45] = test system: XF 498 CNS
[46] = test system: HCC-2998 colon
[47] = test system: M14 melanoma
[48] = test system: DMS 114 small cell lung
[49] = test system: SN12C renal
[50] = test system: UACC-62 melanoma
[51] = test system: OVCAR-5 ovarian
[52] = test system: T-47D breast
[53] = test system: OVCAR-4 ovarian
[54] = test system: DU-145 prostate
[55] = test system: LOX IMVI melanoma
[56] = test system: CCRF-CEM leukemia
[57] = test system: KM20L2 colon
[58] = test system: EKVX NSCLC
[59] = test system: RXF-631 renal
[60] = test system: SNB-78 CNS
[61] = test system: SK-MEL-28 melanoma
[62] = test system: HCT-116 colon
[63] = test system: K-562 leukemia
[64] = test system: CAKI-1 renal
[65] = test system: SF-268 CNS
[66] = test system: NCI-H226 lung
[67] = test system: OVCAR-3 ovarian
[68] = test system: SF-295 CNS

## O=c1cc(-c2cccc(Cl)c2)[nH]c2cc3c(cc12)OCO3
[1]
  TGI: 10.3 µM
[2]
  TGI: 17.1 µM
[3]
  GI50: 0.829 µM
  TGI: 75 µM and 18.1 µM
[4]
  GI50: 3.37 µM
  TGI: 3.45 µM and 13.2 µM
[5]
  TGI: 8.57 µM
[6]
  TGI: 75 µM
[7]
  TGI: 2.73 µM
[8]
  TGI: 54.7 µM
[9]
  GI50: 0.164 µM and 0.626 µM
  TGI: 75 µM and 9.8 µM
[10]
  TGI: 28.1 µM
[11]
  GI50: 0.31 µM
[12]
  GI50: 0.743 µM
  TGI: 75 µM and > 100 µM
[13]
  GI50: 0.363 µM
  TGI: 75 µM and 10.2 µM
[14]
  TGI: 0.582 µM and 0.72 µM
[15]
  TGI: 0.193 µM
[16]
  GI50: 0.263 µM
  TGI: 7.5 µM and 1.39 µM
[17]
  TGI: 11.5 µM
[18]
  TGI: > 100 µM
[19]
  TGI: 75 µM
[20]
  TGI: 2.85 µM
[21]
  TGI: 34.4 µM
[22]
  TGI: > 100 µM
[23]
  GI50: 0.654 µM
  TGI: 75 µM and > 100 µM
[24]
  TGI: 0.158 µM
[25]
  TGI: 2.81 µM
[26]
  TGI: 3.05 µM
[27]
  TGI: 2.8 µM
[28]
  GI50: 0.544 µM
  TGI: 23.4 µM and 23.8 µM
[29]
  GI50: 1.04 µM
  TGI: 36.9 µM and 29.6 µM
[30]
  TGI: > 100 µM
[31]
  TGI: > 100 µM
[32]
  TGI: 21.8 µM
[33]
  TGI: 10.4 µM
[34]
  TGI: > 100 µM
[35]
  GI50: 3.19 µM
  TGI: 9.41 µM and 15.4 µM
[36]
  TGI: 0.712 µM
[37]
  GI50: 0.164 µM
[38]
  TGI: 1.74 µM
[39]
  GI50: 0.76 µM
  TGI: 35 µM and 18.1 µM
[40]
  GI50: 0.565 µM
  TGI: 75 µM and 90.9 µM
[41]
  TGI: > 100 µM
[42]
  GI50: 0.288 µM
  TGI: 1.08 µM and 1.56 µM
[43]
  TGI: 39.3 µM and 22.4 µM
[44]
  GI50: 3.54 µM
[45]
  TGI: 13.8 µM
[46]
  TGI: 4.97 µM
[47]
  GI50: 0.248 µM
  TGI: 75 µM and 13.9 µM
[48]
  TGI: 4.23 µM
[49]
  GI50: 0.522 µM
  TGI: 75 µM and 12.5 µM
[50]
  TGI: 0.556 µM
[51]
  TGI: > 100 µM
[52]
  TGI: 65.3 µM
[53]
  GI50: 43 µM
  TGI: > 100 µM
[54]
  TGI: 0.863 µM
[55]
  GI50: 0.434 µM
  TGI: 38.8 µM and 40.2 µM
[56]
  TGI: 75 µM and 22.6 µM

## O=C1C2C3SC(c4cc5ccccc5cc43)C2C(=O)N1c1ccccc1 (configuration not stated)
[1]
  TGI: > 100 µM
[3]
  TGI: > 100 µM
[4]
  TGI: > 100 µM
[6]
  TGI: > 100 µM
[7]
  TGI: > 100 µM
[9]
  TGI: 94.3 µM
[10]
  TGI: > 100 µM
[11]
  TGI: > 100 µM
[12]
  TGI: > 100 µM
[13]
  TGI: > 100 µM
[14]
  TGI: > 100 µM
[16]
  TGI: > 100 µM
[57]
  TGI: > 100 µM
[19]
  TGI: > 100 µM
[21]
  TGI: > 100 µM
[58]
  TGI: > 100 µM
[59]
  TGI: > 100 µM
[60]
  TGI: > 100 µM
[22]
  TGI: > 100 µM
[61]
  TGI: > 100 µM
[23]
  TGI: > 100 µM
[25]
  TGI: > 100 µM
[26]
  TGI: > 100 µM
[27]
  TGI: > 100 µM
[28]
  TGI: > 100 µM
[29]
  TGI: > 100 µM
[30]
  TGI: > 100 µM
[32]
  TGI: > 100 µM
[33]
  TGI: > 100 µM
[35]
  TGI: > 100 µM
[36]
  TGI: 45.4 µM
[62]
  TGI: > 100 µM
[37]
  TGI: > 100 µM
[39]
  TGI: > 100 µM
[40]
  TGI: > 100 µM
[41]
  TGI: > 100 µM
[42]
  TGI: > 100 µM
[63]
  TGI: > 100 µM
[43]
  TGI: > 100 µM
[64]
  TGI: > 100 µM
[65]
  TGI: > 100 µM
[44]
  TGI: > 100 µM
[66]
  TGI: > 100 µM
[46]
  TGI: > 100 µM
[47]
  TGI: > 100 µM
[67]
  TGI: > 100 µM
[48]
  TGI: > 100 µM
[49]
  TGI: > 100 µM
[50]
  TGI: > 100 µM
[51]
  TGI: > 100 µM
[68]
  TGI: > 100 µM
[53]
  TGI: > 100 µM
[55]
  TGI: > 100 µM
[56]
  TGI: > 100 µM

## CCCN(CCC)C1CC(n2cc(C)c(=O)[nH]c2=O)OC1CO (configuration not stated)
[4]
  TGI: > 100 µM
[5]
  TGI: > 100 µM
[6]
  TGI: > 100 µM
[7]
  TGI: > 100 µM
[8]
  TGI: > 100 µM
[11]
  TGI: > 100 µM
[12]
  TGI: > 100 µM
[14]
  TGI: > 100 µM
[16]
  TGI: > 100 µM
[19]
  TGI: > 100 µM
[20]
  TGI: > 100 µM
[59]
  TGI: > 100 µM
[60]
  TGI: > 100 µM
[61]
  TGI: > 100 µM
[23]
  TGI: > 100 µM
[26]
  TGI: > 100 µM
[27]
  TGI: > 100 µM
[28]
  TGI: > 100 µM
[30]
  TGI: > 100 µM
[32]
  TGI: > 100 µM
[33]
  TGI: > 100 µM
[34]
  TGI: > 100 µM
[36]
  TGI: > 100 µM
[62]
  TGI: > 100 µM
[40]
  TGI: > 100 µM
[42]
  TGI: > 100 µM
[63]
  TGI: > 100 µM
[64]
  TGI: > 100 µM
[65]
  TGI: > 100 µM
[44]
  TGI: > 100 µM
[66]
  TGI: > 100 µM
[46]
  TGI: > 100 µM
[47]
  TGI: > 100 µM
[48]
  TGI: > 100 µM
[49]
  TGI: > 100 µM
[50]
  TGI: > 100 µM
[53]
  TGI: > 100 µM
[56]
  TGI: > 100 µM

## O=C(O)c1ccccc1NS(=O)(=O)c1ccc(Cl)cc1
[1]
  TGI: > 100 µM
[3]
  TGI: > 100 µM
[4]
  TGI: > 100 µM
[5]
  TGI: > 100 µM
[6]
  TGI: > 100 µM
[7]
  TGI: > 100 µM
[9]
  TGI: > 100 µM
[11]
  TGI: > 100 µM
[12]
  TGI: > 100 µM
[13]
  TGI: > 100 µM
[14]
  TGI: > 100 µM
[57]
  TGI: > 100 µM
[19]
  TGI: > 100 µM
[20]
  TGI: > 100 µM
[21]
  TGI: > 100 µM
[58]
  TGI: > 100 µM
[60]
  TGI: > 100 µM
[22]
  TGI: > 100 µM
[61]
  TGI: > 100 µM
[23]
  TGI: > 100 µM
[25]
  TGI: > 100 µM
[26]
  TGI: > 100 µM
[27]
  TGI: > 100 µM
[28]
  TGI: > 100 µM
[30]
  TGI: > 100 µM
[32]
  TGI: 81.5 µM
[33]
  TGI: > 100 µM
[34]
  TGI: > 100 µM
[35]
  TGI: > 100 µM
[36]
  TGI: > 100 µM
[62]
  TGI: > 100 µM
[37]
  TGI: > 100 µM
[39]
  TGI: > 100 µM
[40]
  TGI: > 100 µM
[41]
  TGI: > 100 µM
[42]
  TGI: > 100 µM
[63]
  TGI: > 100 µM
[43]
  TGI: > 100 µM
[64]
  TGI: > 100 µM
[65]
  TGI: > 100 µM
[44]
  TGI: > 100 µM
[45]
  TGI: > 100 µM
[66]
  TGI: > 100 µM
[46]
  TGI: > 100 µM
[47]
  TGI: > 100 µM
[48]
  TGI: > 100 µM
[49]
  TGI: > 100 µM
[50]
  TGI: > 100 µM
[51]
  TGI: > 100 µM
[53]
  TGI: > 100 µM
[55]
  TGI: > 100 µM
[56]
  TGI: > 100 µM
